What was measured:
Assay type in all cases: cell-based
mouse leukaemia P-388 = experiment: in vitro antitumour activity in cell cultures, mouse leukaemia P-388; settings: P388; mouse leukaemia P-388 cell culture
Experimental: (§1) The antitumour activities of IB-00208 have been determined in vitro in cell cultures of mouse leukaemia P-388, human lung carcinoma A-549, human colon carcinoma HT-29 and human melanoma MEL-28. The procedure was carried out using the methodology described by Bergeron et al. The IC50 found was of 0.001, 0.001, 0.001, and 0.001 μg/ml for all 4 cell lines.

human melanoma MEL-28 = experiment: in vitro antitumour activity in cell cultures, human melanoma MEL-28; settings: SK-MEL-28; human melanoma MEL-28 cell culture
Experimental: as §1

[1] = tested on: human lung carcinoma A-549; experiment: in vitro antitumour activity in cell cultures, human lung carcinoma A-549; settings: A549; human lung carcinoma A-549 cell culture
Experimental: as §1

[2] = tested on: human colon carcinoma HT-29; experiment: in vitro antitumour activity in cell cultures, human colon carcinoma HT-29; settings: human colon carcinoma HT-29 cell culture
Experimental: as §1

Measured: IC50

COc1ccc(OC)c2c(=O)c3c(oc12)C(=O)c1ccc2c(OC4OC(C)C(OC)C(OC)C4OC)c4c(c(O)c2c1C3=O)C(=O)OC(C)C4 (stereo not shown) [IB-00208]
1 ng/mL: mouse leukaemia P-388 | human melanoma MEL-28 | [1] | [2]
